Data taken from article PMC11876671, “Investigating blood–brain barrier penetration and neurotoxicity of natural products for central nervous system drug development” (Scientific Reports, 2025).
Structures can show the parent of a compound that is named as a salt.

Experiment: in vitro
Conditions: PAMPA, PAMPA-BBB Pe

Row | SMILES | Papp [×10⁻⁶ cm/s]
1 | O=C1C[C@@H]2OCC=C3CN4CC[C@]56c7ccccc7N1[C@H]5[C@H]2[C@H]3C[C@H]46 [[…]] | 13

Same assay, conditions: PAMPA, PAMPA-BBB Pe(10^-6 cm/sec)

Row | SMILES | Papp [×10⁻⁶ cm/s]
2 | COc1ccc(/C=C/C(=O)O)cc1OC [3,4-DIMETHOXYCINNAMIC ACID] | < 1
3 | COc1cc(/C=C/C(N)=O)cc(OC)c1OC [CINTRIAMIDE] | 2.3
4 | Cc1cc2nc3c(=O)[nH]c(=O)nc-3n(C[C@H](O)[C@H](O)[C@H](O)CO)c2cc1C [RIBOFLAVIN] | < 1
5 | Nc1nc(=O)[nH]c2c1ncn2[C@@H]1O[C@H](CO)[C@@H](O)[C@H]1O [ISOGUANOSINE] | < 1
6 | Oc1cc(O)c2c(c1)O[C@H](c1ccc(O)c(O)c1)[C@H](O)C2 [L-EPICATECHIN] | < 1
7 | CNCC(O)c1ccc(O)c(O)c1 (stereo not shown) [RACEPINEPHRINE HYDROCHLORIDE] | < 1
8 | CC(=O)OCC(=O)[C@@]1(O)CC[C@H]2[C@@H]3CCC4=CC(=O)CC[C@]4(C)[C@H]3[C@@H](O)C[C@@]21C [HYDROCORTISONE ACETATE] | < 1
9 | COc1cc2c(c(OC)c1OC)-c1ccc(OC)c(=O)cc1[C@@H](NC(C)=O)CC2 [COLCHCINE] | < 1

Same assay, conditions: PAMPA, PAMPA-BBB Pe(10^-6 cm/sec), Table S3: compounds exhibiting low PAMPA-BBB permeability

Row | SMILES | Papp [×10⁻⁶ cm/s]
10 | O=c1c(O)c(-c2ccc(O)cc2O)oc2cc(O)cc(O)c12 [MORIN] | 1.5
11 | CC/C=C\CC1=C(C)CCC1=O [JASMONE] | < 1
12 | CO[C@@H]1[C@@H](O[C@@H]2O[C@H](C)[C@@H](O[C@H]3C[C@@](C)(O)[C@@H](O)[C@H](C)O3)[C@H](N(C)C)[C@H]2O)[C@@H](CC=O)C[C@@H](C)[C@@H](O[C@H]2CC[C@H](N(C)C)[C@@H](C)O2)/C=C/C=C/C[C@@H](C)OC(=O)C[C@H]1OC(C)=O [SPIRAMYCIN II] | 7.6
13 | O=c1c(O)c(-c2ccccc2O)oc2cc(O)cc(O)c12 [DATISCETIN] | 2.2
14 | Cc1cc(=O)oc2cc(O)ccc12 [HYMECROMONE] | 9.9
15 | O=c1cc(-c2ccc(O)cc2)oc2c([C@@H]3O[C@H](CO)[C@@H](O)[C@H](O)[C@H]3O)c(O)cc(O)c12 [VITEXIN] | < 1
16 | Nc1ncn([C@@H]2O[C@H](CO)[C@@H](O)[C@H]2O)c(=O)n1 [AZACITIDINE] | < 1
17 | Cc1cccc(C(=O)O)c1O [HYDROXYTOLUIC ACID] | < 1
18 | Nc1ccn([C@@H]2O[C@H](CO)[C@@H](OP(=O)(O)O)[C@H]2O)c(=O)n1 [3'-CMP] | < 1
19 | O=C(Nc1ccccc1C(=O)O)c1ccccc1 [[…] B] | 1.9
20 | NCCc1c[nH]c2ccc(O)cc12 [SEROTONIN HYDROCHLORIDE] | < 1
21 | O=C(O)c1cc(O)c2c(c1)[C@@H]([C@H]1c3cc(C(=O)O)cc(O)c3C(=O)c3c(O[C@@H]4O[C@H](CO)[C@@H](O)[C@H](O)[C@H]4O)cccc31)c1cccc(O[C@@H]3O[C@H](CO)[C@@H](O)[C@H](O)[C@H]3O)c1C2=O [SENNOSIDE B] | 3
22 | CCCCc1ccc(C(=O)O)nc1 [FUSARIC ACID] | < 1
23 | CCNc1nc(N)nc(Cl)n1 | 1.1
24 | CN(Cc1nc2c(N)nc(N)nc2nc1O)c1ccc(C(=O)N[C@@H](CCC(=O)O)C(=O)O)cc1 [7-HYDROXYMETHOTREXATE] | < 1
25 | CC(=O)OCC1=C(C(=O)O)N2C(=O)C(N)C2SC1 (stereo not shown) [7-Aminocephalosporanic acid] | < 1
26 | O=C(O)/C=C/c1c[nH]cn1 [UROCANIC ACID] | < 1
27 | O=c1c(O)c(-c2ccc(O[C@@H]3O[C@H](CO)[C@@H](O)[C@H](O)[C@H]3O)c(O)c2)oc2cc(O)cc(O)c12 [SPIRAEOSIDE] | < 1
28 | CC(=O)O[C@@H]1C[C@H]2C(C)(C)C(=O)C=C[C@]2(C)[C@H]2CC[C@@]3(C)[C@H](c4ccoc4)OC(=O)[C@H]4O[C@]43[C@@]21C [GEDUNIN] | < 1
29 | Cc1cc(OC(=O)c2c(C)cc(O)cc2O)cc(O)c1C(=O)O [LECANORIC ACID] | < 1
30 | CNc1ccccc1C(=O)N1CCc2c([nH]c3ccccc23)C1=O [Rhetsinine] | 2.6

Row | SMILES | Papp [×10⁻⁶ cm/s]
31 | C[C@@]12C=Cc3occc3[C@H]1CC[C@@]13C[C@@H](CC[C@H]12)[C@@](O)(CO)C3 [KAHWEOL] | < 1
32 | O=C(O[C@@H]1Cc2c(O)cc(O)cc2O[C@@H]1c1cc(O)c(=O)c2c(O)c(O)cc([C@H]3Oc4cc(O)cc(O)c4C[C@H]3O)c2c1)c1cc(O)c(O)c(O)c1 [THEAFLAVIN MONOGALLATE] | < 1
33 | O=C(O)c1cc(O)c(O)c(O)c1 [GALLIC ACID] | < 1
34 | O=c1cc(-c2ccc(O)cc2)oc2cc(O[C@@H]3O[C@H](CO)[C@@H](O)[C@H](O)[C@H]3O[C@@H]3OC[C@](O)(CO)[C@H]3O)cc(O)c12 [APIIN] | 2
35 | CCCCC/C=C\C=C\C(=O)OCC [ETHYL TRANS-2,CIS-4-DECADIENOATE] | < 1
36 | Cc1ncsc1CCO [HEMINEURINE] | < 1
37 | O=C(O)c1ccco1 [2-FURANOIC ACID] | < 1
38 | O=C1C=CC(=O)c2c(O)cccc21 [JUGLONE] | 4.1
39 | O=C1C=C2C(=CCOC2O)O1 (stereo not shown) [PATULIN] | < 1
40 | CN(CCCC(=O)c1cccnc1)N=O | < 1
41 | COc1cc2c(c(OC)c1OC)-c1ccc(OC)c(=O)cc1[C@@H](NC=O)CC2 [N-FORMYL-N-DEACETYLCOLCHICINE] | 6.6
42 | COc1cc2c(c(OC)c1OC)-c1ccc(O)c(=O)cc1[C@@H](N)CC2 [N-DEACETYLCOLCHICEINE] | 8.2
43 | OC[C@H]1O[C@@H](Oc2ccc(O)cc2)[C@H](O)[C@@H](O)[C@@H]1O [ARBUTIN] | < 1
44 | O=C/C=C/c1ccccc1 | < 1
45 | O=c1ccn([C@@H]2O[C@H](COP(=O)(O)OP(=O)(O)O)[C@@H](O)[C@H]2O)c(=O)[nH]1 [Uridine diphosphate disodium] | < 1
46 | C[C@@H]1O[C@@H](O[C@@H]2C=C3CC[C@@H]4[C@H](CC[C@]5(C)[C@@H](c6ccc(=O)oc6)CC[C@]45O)[C@@]3(C)CC2)[C@H](O)[C@H](O)[C@H]1O [PROSCILLARIDIN] | 1.5
47 | COc1ccc(-c2cc(=O)c3c(O)c(OC)c(O[C@@H]4O[C@H](CO[C@@H]5O[C@@H](C)[C@H](O)[C@@H](O)[C@H]5O)[C@@H](O)[C@H](O)[C@H]4O)cc3o2)cc1 [PECTOLINARIN] | < 1
48 | COC1=C[C@@H]2[C@@H]3Cc4ccc(OC)c(O)c4[C@]2(CCN3C)CC1=O [SINOMENINE] | 2.2
49 | C[n+]1cc2c3c(ccc2c2ccc4cc5c(cc4c21)OCO5)OCO3 [SANGUINARIUM CHLORIDE] | < 1
50 | CC(C)=CCC/C(C)=C/COc1c2ccoc2cc2oc(=O)ccc12 [BERGAMOTTIN] | 5.8
51 | O=C(CCc1ccc(O)cc1)c1c(O)cc(O)cc1O [PHLORETIN] | 2.2

Same assay, conditions: PAMPA, PAMPA-BBB Pe, Table S2: compounds exhibiting moderate to high PAMPA-BBB permeability

Row | SMILES | Papp [×10⁻⁶ cm/s]
52 | CC(=O)[C@H]1CC[C@H]2[C@@H]3C[C@H](C)C4=CC(=O)CC[C@]4(C)[C@H]3[C@@H](O)C[C@]12C [MEDRYSONE] | 72
53 | C=C1CC[C@H](O)C/C1=C/C=C1\CCC[C@]2(C)[C@@H]([C@H](C)CCC(O)C(C)(C)O)CC[C@@H]12 (stereo partly shown) [24,25-DIHYDROXYVITAMIN D3] | 78
54 | COc1cc(-c2oc3cc(O)cc(O)c3c(=O)c2O)ccc1O [ISORHAMNETIN] | 528
55 | O=[N+]([O-])c1c(Cl)cccc1-c1c[nH]cc1Cl [PYRROLNITRIN] | 159
56 | CC1=C2[C@H]3OC(=O)[C@@H](C)[C@@H]3CC[C@@]2(C)C=CC1=O [SANTONINUM] | 49
57 | C=CCc1ccc(O)c(OC)c1 [EUGENOL] | 116
58 | CCc1ccc(O)c(OC)c1 [4-ETHYLGUAIACOL] | 116
59 | O=Cc1cc2ccccc2o1 [2-FORMYLBENZOFURAN] | 154
60 | OCc1c[nH]c2ccccc12 [INDOLE-3-CARBINOL] | 94
61 | C[C@]12CC[C@H]3[C@@H](CCC4=CC(=O)CC[C@@]43C)[C@@H]1CC[C@@H]2C(=O)CO [DESOXYCORTICOSTERONE] | 65
62 | CC(=O)OCC=Cc1ccccc1 [CINNAMYL ACETATE] | 88
63 | CNC(=O)Nc1ccc(Cl)c(Cl)c1 [3,4-DCPMU] | 115
64 | CC[C@@]1(O)C[C@H](O[C@H]2C[C@H](N(C)C)[C@H](O)[C@H](C)O2)c2c(cc3c(c2O)C(=O)c2c(O)cccc2C3=O)[C@H]1C(=O)OC [AKLAVINE] | 116
65 | COc1ccc(-c2cc(=O)c3c(O)c(OC)c(OC)cc3o2)cc1O [EUPATORIN] | 281
66 | COc1c2c(cc3c1OCO3)CCN(C)C2 [HYDROCOTARNINE HYDROBROMIDE] | 35
67 | C/C=C(\C)C(=O)O[C@@H]1c2c(ccc3ccc(=O)oc23)OC(C)(C)[C@@H]1OC(C)=O [PTERYXINE] | 205

Row | SMILES | Papp [×10⁻⁶ cm/s]
68 | COc1ccc(/C=C/c2cc(OC)cc(=O)o2)cc1 [YANGONIN] | 156
69 | CC[C@H](C)[C@H]1O[C@]2(C=C[C@@H]1C)C[C@@H]1C[C@@H](C/C=C(\C)[C@@H](O[C@H]3C[C@H](OC)[C@@H](O[C@H]4C[C@H](OC)[C@@H](O)[C@H](C)O4)[C@H](C)O3)[C@@H](C)/C=C/C=C3\CO[C@@H]4[C@H](O)C(C)=C[C@@H](C(=O)O1)[C@]34O)O2 [ABAMECTIN B1A] | 35
70 | Cn1c2cccc(=O)c-2nc2ccccc21 [PYOCYANINE] | 299
71 | O=C1c2ccccc2-n2c1nc1ccccc1c2=O [[…]] | 141
72 | COC(=O)/C=C\C(=O)O [[…]] | 48
73 | CCOC(=O)/C=C/c1ccccc1 [ETHYL CINNAMATE] | 110
74 | COc1ccccc1/C=C/C=O [2'-METHOXYCINNAMALDEHYDE] | 122
75 | C/C=C/c1ccc(OC)cc1 [ANETHOLE] | 120
76 | CC(=O)/C=C/C1C(C)=CCC(C)C1(C)C (mixture of isomers) [DL-TRANS-.ALPHA.-IRONE] | 34
77 | Cc1ccc(C(C)C)cc1O [CARVACROL] | 111
78 | COc1ccc2ccc(=O)oc2c1 [7-METHOXYCOUMARIN] | 77
79 | CC(C)=CCC[C@@H](C)[C@H]1CC[C@@]2(C)C3=C(CC[C@]12C)[C@@]1(C)CC[C@H](O)C(C)(C)[C@@H]1CC3 [LANOSTEROL] | 13
80 | COc1ccc2[nH]c3c(c2c1)CCN=C3C [6-METHOXYHARMALANE] | 49
81 | Cn1cnc2c(NCc3ccccc3)nc(NCCO)nc21 [OLOMOUCINE] | 10
82 | COc1cc(/C=C/c2ccccc2)oc(=O)c1 [DEMETHOXYYANGONIN] | 186
